Source: BindingDB's records for doi:10.1016/j.bmcl.2009.07.009 (Konkuk University, 2009)

Experiments:
[1] = molecular target: T1, Replicase polyprotein 1ab (Severe acute respiratory syndrome coronavirus, UniProt P0C6X7); test: Inhibition of ATPase activity of SARS coronavirus helicase assessed as phosphate release by malachite green assay
[2] = molecular target: T1, Replicase polyprotein 1ab; test: Inhibition of SARS coronavirus helicase assessed as duplex-DNA unwinding by FRET based assay

## O=c1c(O)ccc2oc(CNCc3cccc(Cl)c3)cc(O)c1-2 [2-[(3-Chloro-benzylamino)-methyl]-5,6-dihydroxy-chromen-4-one]
[1]
  IC50: > 50 µM
[2]
  IC50: > 50 µM

## O=c1c(O)ccc2oc(CNCc3ccc(Cl)cc3)cc(O)c1-2 [2-[(4-Chloro-benzylamino)-methyl]-5,6-dihydroxy-chromen-4-one]
[1]
  IC50: > 50 µM
[2]
  IC50: > 50 µM

## N#Cc1cccc(CNCc2cc(O)c3c(=O)c(O)ccc-3o2)c1 [3-{[(5,6-Dihydroxy-4-oxo-4H-chromen-2-ylmethyl)-amino]-methyl}-benzonitrile]
[1]
  IC50: > 50 µM
[2]
  IC50: > 50 µM
